Values of other authors as cited in patent US9370574B2, “Composite absorbable/biodegradable rings for controlled drug delivery” (Poly-Med, Inc., priority 2003, dated 2016).

How the values were obtained:
[1] = system: cervical intraepithelial neoplasia (CIN); conditions: collagen sponge in cervical cap
bacterial vaginosis [2] = conditions: 5 gm gel (0.75%) twice-daily for 5 days
bacterial vaginosis [3] = system: bacterial vaginosis
[4] = system: post-irradiation vaginal carcinoma in-situ; conditions: 20% 5-FU over monthly 5-day courses
[5] = system: Human Papillomavirus (HPV)-associated lesions of the vulva and vagina; conditions: biweekly doses of 5% cream for six months following ablative treatment

## CC1=C(/C=C/C(C)=C/C=C/C(C)=C/C(=O)O)C(C)(C)CCC1 [RA, all-trans-retinoic acid]
[1]; locally applied daily for 4 days
  complete histologic regression of CIN II: 43%
[1]; locally applied
  treatment effect in severe dysplasia (CIN III): No treatment effect

## Cc1ncc([N+](=O)[O-])n1CCO [metronidazole]
Bacterial vaginosis [2]; after 9 to 21 days
  clinical cure rate: 87%
Bacterial vaginosis [2]; after one month
  recurrence rate: 15%
Bacterial vaginosis [3]; high dose sponge (one gram once-daily for three days)
  failure rate after one month, high dose: 12%
Bacterial vaginosis [3]; intravaginal sponges, 250 mg twice-daily two days or one gram once-daily three days, after one week
  cure rate: 85%
Bacterial vaginosis [3]; low dose sponge (250 mg twice-daily for two days)
  failure rate after one month, low dose: 42%

## O=c1[nH]cc(F)c(=O)[nH]1 [Type 5-FU, 5-flurouracil]
[4]
  initial complete response: seven of the eight
[5]
  recurrences: 13%
